This is an account of results in patent publication US12448389B2, “BRM targeting compounds and associated methods of use” (Prelude Therapeutics Incorporated, priority 2020, dated 2025).

The term DC50 denotes the concentration giving 50% degradation. One may read the Dmax as the largest share of the target that was removed.

Experiment [1] addresses T1, SMARCA2-HiBiT (Homo sapiens, UniProt P51531).
T1 construct: SMARCA2-HiBiT knock-in Hela monoclonal cell (CS302366); host or cells: HeLa monoclonal knock-in line (CRISPR HiBiT knock-in at the endogenous locus, heterozygous)
Nature of the experiment: SMARCA2 HiBiT degradation assay in HeLa cells. The format is cell-based. As to conditions: 18 hours incubation; for DC50: read-out: HeLa_HiBit-SM2 DC50; for Dmax: HeLa, read-out: HeLa-HiBit-SM2 Dmax (%). Summed up: (§1)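 HeLa monoclonal lines with heterozygous HiBiT knock-in were seeded at 2500 cells/well in EMEM with 10% FBS and treated with compound for 18 h at 37 °C. Remaining tagged protein was measured by Nano-Glo HiBiT lytic luminescence after 30–60 min at RT, and values came from curve fitting.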
(In general: HiBiT is a short tag that completes a luciferase, so light tracks the accessible tagged protein.)

The target in experiment [2] is T2, SMARCA4-HiBiT (Homo sapiens, UniProt P51532).
T2 construct: SMARCA4-HiBiT knock-in Hela monoclonal cell (CS3023226); host or cells: HeLa monoclonal knock-in line (CRISPR HiBiT knock-in at the endogenous locus, heterozygous)
T2 sequence (P51532 whole entry): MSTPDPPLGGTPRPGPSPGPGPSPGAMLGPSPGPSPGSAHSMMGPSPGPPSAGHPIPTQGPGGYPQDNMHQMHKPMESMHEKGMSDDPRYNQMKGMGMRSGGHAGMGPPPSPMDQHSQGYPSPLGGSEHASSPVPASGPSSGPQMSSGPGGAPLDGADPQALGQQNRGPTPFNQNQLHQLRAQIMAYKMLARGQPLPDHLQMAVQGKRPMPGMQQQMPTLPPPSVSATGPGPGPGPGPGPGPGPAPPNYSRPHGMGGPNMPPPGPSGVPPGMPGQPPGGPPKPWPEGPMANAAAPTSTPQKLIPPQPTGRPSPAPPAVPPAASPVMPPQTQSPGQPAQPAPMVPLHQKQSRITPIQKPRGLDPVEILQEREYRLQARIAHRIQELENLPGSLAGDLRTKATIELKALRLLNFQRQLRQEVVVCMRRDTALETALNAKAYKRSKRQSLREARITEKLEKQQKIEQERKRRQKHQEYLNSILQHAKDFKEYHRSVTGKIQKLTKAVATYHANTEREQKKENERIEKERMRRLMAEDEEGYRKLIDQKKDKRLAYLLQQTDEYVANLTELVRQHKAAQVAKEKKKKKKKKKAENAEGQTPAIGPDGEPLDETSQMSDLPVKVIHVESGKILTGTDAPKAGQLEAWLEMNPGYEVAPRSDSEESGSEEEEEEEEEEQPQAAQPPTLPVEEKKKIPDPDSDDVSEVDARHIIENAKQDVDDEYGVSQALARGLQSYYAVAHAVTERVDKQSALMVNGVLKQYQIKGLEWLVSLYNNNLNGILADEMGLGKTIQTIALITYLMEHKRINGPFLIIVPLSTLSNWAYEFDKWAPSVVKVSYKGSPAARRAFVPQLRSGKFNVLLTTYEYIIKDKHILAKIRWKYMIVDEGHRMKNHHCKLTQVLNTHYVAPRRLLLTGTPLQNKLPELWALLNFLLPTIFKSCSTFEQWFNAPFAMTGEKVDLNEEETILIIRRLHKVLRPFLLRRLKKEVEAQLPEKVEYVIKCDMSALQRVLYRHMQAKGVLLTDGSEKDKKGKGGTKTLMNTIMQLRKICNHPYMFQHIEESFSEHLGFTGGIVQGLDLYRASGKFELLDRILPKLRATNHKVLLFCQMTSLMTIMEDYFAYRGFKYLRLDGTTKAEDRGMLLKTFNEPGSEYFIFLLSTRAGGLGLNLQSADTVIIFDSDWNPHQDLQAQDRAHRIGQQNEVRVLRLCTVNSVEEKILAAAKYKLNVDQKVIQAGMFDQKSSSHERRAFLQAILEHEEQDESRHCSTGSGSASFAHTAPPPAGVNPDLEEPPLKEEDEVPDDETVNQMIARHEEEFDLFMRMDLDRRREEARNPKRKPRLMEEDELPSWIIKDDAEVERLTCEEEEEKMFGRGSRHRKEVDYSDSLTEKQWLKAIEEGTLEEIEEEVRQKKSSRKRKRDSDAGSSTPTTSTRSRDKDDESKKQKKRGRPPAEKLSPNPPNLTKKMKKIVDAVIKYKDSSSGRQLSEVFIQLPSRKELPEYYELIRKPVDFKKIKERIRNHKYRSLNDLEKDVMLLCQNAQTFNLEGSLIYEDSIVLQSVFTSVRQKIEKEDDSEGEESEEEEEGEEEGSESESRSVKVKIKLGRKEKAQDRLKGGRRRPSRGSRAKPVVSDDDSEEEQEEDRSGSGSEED
Nature of the experiment: SMARCA4 HiBiT degradation assay in HeLa cells. The class given is cell-based. As to conditions: 18 hours incubation; for DC50: read-out: HeLa-HiBit-SM4 DC50; for Dmax: HeLa, read-out: HeLa-HiBit-SM4 Dmax (%). Summed up: as §1

T1 sequence (P51531 whole entry): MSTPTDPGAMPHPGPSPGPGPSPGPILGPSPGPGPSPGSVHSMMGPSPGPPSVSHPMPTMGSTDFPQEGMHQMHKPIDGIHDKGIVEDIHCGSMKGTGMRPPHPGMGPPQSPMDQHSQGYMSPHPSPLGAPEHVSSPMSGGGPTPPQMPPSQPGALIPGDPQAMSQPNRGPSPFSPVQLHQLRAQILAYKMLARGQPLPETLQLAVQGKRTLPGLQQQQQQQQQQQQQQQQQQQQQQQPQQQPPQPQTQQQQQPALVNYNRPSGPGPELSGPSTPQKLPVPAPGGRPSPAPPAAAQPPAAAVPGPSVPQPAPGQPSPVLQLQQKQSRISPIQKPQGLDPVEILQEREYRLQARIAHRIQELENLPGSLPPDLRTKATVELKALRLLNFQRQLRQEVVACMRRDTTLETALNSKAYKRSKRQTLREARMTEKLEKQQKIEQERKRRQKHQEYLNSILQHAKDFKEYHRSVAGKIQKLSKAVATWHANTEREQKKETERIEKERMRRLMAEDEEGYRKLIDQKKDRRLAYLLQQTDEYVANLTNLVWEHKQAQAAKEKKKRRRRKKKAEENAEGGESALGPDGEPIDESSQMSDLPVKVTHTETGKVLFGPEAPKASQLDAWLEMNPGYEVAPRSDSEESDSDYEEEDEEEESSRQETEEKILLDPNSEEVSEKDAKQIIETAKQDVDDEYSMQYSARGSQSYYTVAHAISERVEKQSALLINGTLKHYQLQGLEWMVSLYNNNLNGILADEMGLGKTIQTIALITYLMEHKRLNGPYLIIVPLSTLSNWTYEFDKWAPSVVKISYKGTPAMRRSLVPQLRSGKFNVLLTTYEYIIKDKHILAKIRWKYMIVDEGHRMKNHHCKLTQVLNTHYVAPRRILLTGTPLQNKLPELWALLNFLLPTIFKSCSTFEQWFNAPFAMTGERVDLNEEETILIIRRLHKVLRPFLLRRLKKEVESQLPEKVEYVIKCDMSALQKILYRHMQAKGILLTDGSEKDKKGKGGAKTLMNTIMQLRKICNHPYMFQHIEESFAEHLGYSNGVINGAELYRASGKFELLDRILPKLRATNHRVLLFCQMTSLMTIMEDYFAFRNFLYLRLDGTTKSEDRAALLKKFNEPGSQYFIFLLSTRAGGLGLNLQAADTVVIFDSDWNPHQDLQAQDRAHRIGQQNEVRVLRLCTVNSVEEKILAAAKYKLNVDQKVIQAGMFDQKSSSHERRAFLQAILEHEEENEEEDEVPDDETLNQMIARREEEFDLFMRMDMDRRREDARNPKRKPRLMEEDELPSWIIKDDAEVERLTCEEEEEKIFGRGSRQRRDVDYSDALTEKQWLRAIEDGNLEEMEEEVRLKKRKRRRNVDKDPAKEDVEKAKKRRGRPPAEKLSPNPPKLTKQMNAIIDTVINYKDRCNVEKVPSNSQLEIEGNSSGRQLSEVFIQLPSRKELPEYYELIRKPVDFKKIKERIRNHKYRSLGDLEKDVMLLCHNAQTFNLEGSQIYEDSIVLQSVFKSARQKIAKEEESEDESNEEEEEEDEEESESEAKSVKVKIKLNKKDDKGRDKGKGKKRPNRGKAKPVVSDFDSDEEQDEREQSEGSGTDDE

Regarding `O=C1CCC(N2C(=O)c3ccc(N4CCN(C(=O)OCCN5CCC(N6CCN7c8cc(-c9ccccc9O)nnc8NC[C@H]7C6)CC5)CC4)cc3C2=O)C(=O)N1` (stereo partly drawn) [Example 223, 2-(4-((S)-2-(2-hydroxyphenyl)-5,6,6a,7,9,10-hexahydro-8H-pyrazino[1′,2′:4,5]pyrazino[2,3-c]pyridazin-8-yl)piperidin-1-yl)ethyl 4-(2-(2,6-dioxopiperidin-3-yl)-1,3-dioxoisoindolin-5-yl)piperazine-1-carboxylate], in experiment [1], the 50% degradation concentration (DC50) was less than 10 nM and the Dmax lay within 75 to 85%. Further, in experiment [2], the DC50 was less than 10 nM and the Dmax lay within 75 to 85%.
`O=C1CCC(N2C(=O)c3ccc(N4CC[C@H](CN5CCC(C(=O)N6CCN7c8cc(-c9ccccc9O)nnc8NC[C@H]7C6)CC5)[C@@H](F)C4)cc3C2=O)C(=O)N1` (stereo partly drawn) [Example 202, 2-(2,6-dioxopiperidin-3-yl)-5-[(3R,4R)-3-fluoro-4-[[4-[(10S)-4-(2-hydroxyphenyl)-1,5,6,8,12-pentazatricyclo [8.4.0.02,7]tetradeca-2(7),3,5-trien-12-carbonyl]piperidin-1-yl]methyl]piperidin-1-yl]isoindole-1,3-dione]: in experiment [1], the 50% degradation concentration (DC50) is less than 10 nM and the Dmax is more than 85%. Besides, in experiment [2], the DC50 fell in the range of 10 to 100 nM and the greatest degradation seen (Dmax) was 75 to 85%.
With `O=C1CCC(N2C(=O)c3ccc(N4CCC(CN5CC6CC6(CN6CCN7c8cc(-c9ccccc9O)nnc8NC[C@H]7C6)C5)CC4)cc3C2=O)C(=O)N1` (stereo partly drawn) [Example 172, 2-(2,6-dioxopiperidin-3-yl)-5-[4-[[1-[[(10S)-4-(2-hydroxyphenyl)-1,5,6,8,12-pentazatricyclo[8.4.0.02,7]tetradeca-2,4,6-trien-12-yl]methyl]-3-azabicyclo[3.1.0]hexan-3-yl]methyl]piperidin-1-yl]isoindole-1,3-dione], in experiment [1], the DC50 was less than 10 nM and the Dmax lay in the range of 75 to 85%. Further, in experiment [2], the DC50 was less than 10 nM and the Dmax fell in the range of 50 to 75%.
In the case of `O=C1CCC(N2Cc3ccc(N4CCN(CCN5CCC(CN6CCN7c8cc(-c9ccccc9O)nnc8NC[C@H]7C6)CC5)CC4)cc3C2=O)C(=O)N1` (stereo partly drawn) [Example 119, 3-(6-(4-(2-(4-(((S)-2-(2-hydroxyphenyl)-5,6,6a,7,9,10-hexahydro-8H-pyrazino[1′,2′:4,5]pyrazino[2,3-c]pyridazin-8-yl)methyl)piperidin-1-yl)ethyl)piperazin-1-yl)-1-oxoisoindolin-2-yl)piperidine-2,6-dione], in experiment [1], the 50% degradation concentration (DC50) was less than 10 nM and the Dmax was more than 85%. Moreover, in experiment [2], the DC50 is less than 10 nM and the Dmax is more than 85%.
Regarding `O=C1CCC(N2C(=O)c3ccc(N4CCC(NC5CCN(C(=O)N6CCN7c8cc(-c9ccccc9O)nnc8NC[C@H]7C6)CC5)CC4)cc3C2=O)C(=O)N1` (stereo partly drawn) [Example 141, 2-(2,6-dioxopiperidin-3-yl)-5-(4-((1-((S)-2-(2-hydroxyphenyl)-6,6a,7,8,9,10-hexahydro-5H-pyrazino[1′,2′:4,5]pyrazino[2,3-c]pyridazine-8-carbonyl)piperidin-4-yl)amino)piperidin-1-yl)isoindoline-1,3-dione], in experiment [1], the DC50 was less than 10 nM and the Dmax was in the range of 75 to 85%. For the same molecule, in experiment [2], the DC50 was 10 to 100 nM and the Dmax is 50 to 75%.
As for `O=C1CCC(N2C(=O)c3ccc(N4CCC(CN5CCc6cnc(N7CCN8c9cc(-c%10ccccc%10O)nnc9NC[C@H]8C7)nc6C5)CC4)cc3C2=O)C(=O)N1` (stereo partly drawn) [Example 60, 2-(2,6-dioxopiperidin-3-yl)-5-(4-((2-((S)-2-(2-hydroxyphenyl)-5,6,6a,7,9,10-hexahydro-8H-pyrazino[1′,2′:4,5]pyrazino[2,3-c]pyridazin-8-yl)-5,8-dihydropyrido[3,4-d]pyrimidin-7(6H)-yl)methyl)piperidin-1-yl) isoindoline-1,3-dione], in experiment [1], the DC50 was less than 10 nM and the Dmax was not above 50%. Further, in experiment [2], the DC50 is less than 10 nM and the Dmax was not above 50%.
Take `O=C1CCC(N2Cc3ccc(N4CCN(CCCN5CCC(CN6CCN7c8cc(-c9ccccc9O)nnc8NC[C@H]7C6)CC5)CC4)cc3C2=O)C(=O)N1` (stereo partly drawn) [Example 121, 3-(6-(4-(3-(4-(((S)-2-(2-hydroxyphenyl)-5,6,6a,7,9,10-hexahydro-8H-pyrazino[1′,2′:4,5]pyrazino[2,3-c]pyridazin-8-yl)methyl)piperidin-1-yl)propyl)piperazin-1-yl)-1-oxoisoindolin-2-yl)piperidine-2,6-dione]: the results for the DC50 in experiment [1] and in experiment [2] were less than 10 nM and 10 to 100 nM, respectively. Moreover, the Dmax was more than 85% in experiment [1] and 75 to 85% in experiment [2].
With `COC1(CN2C[C@@H]3[C@@H](CN4CCN5c6cc(-c7ccccc7O)nnc6NC[C@H]5C4)[C@@H]3C2)CCN(c2ccc3c(c2)C(=O)N(C2CCC(=O)NC2=O)C3)CC1` (stereo partly drawn) [Example 252, 3-(6-(4-(((1R,5S,6s)-6-(((S)-2-(2-hydroxyphenyl)-5,6,6a,7,9,10-hexahydro-8H-pyrazino[1′,2′:4,5]pyrazino[2,3-c]pyridazin-8-yl)methyl)-3-azabicyclo[3.1.0]hexan-3-yl)methyl)-4-methoxypiperidin-1-yl)-1-oxoisoindolin-2-yl)piperidine-2,6-dione], in experiment [1], the DC50 was less than 10 nM and the Dmax is more than 85%. Moreover, in experiment [2], the DC50 is less than 10 nM and the Dmax is more than 85%.
Take `CC1CN(CC2CCN(c3cc4c(cc3F)C(=O)N(C3CCC(=O)NC3=O)C4=O)CC2)CCC1CN1CCN2c3cc(-c4ccccc4O)nnc3NC[C@H]2C1` (stereo partly drawn) [Example 165, 2-(2,6-dioxopiperidin-3-yl)-5-fluoro-6-[4-[[4-[[(10S)-4-(2-hydroxyphenyl)-1,5,6,8,12-pentazatricyclo[8.4.0.02,7]tetradeca-2,4,6-trien-12-yl]methyl]-3-methylpiperidin-1-yl]methyl]piperidin-1-yl] isoindole-1,3-dione]: in experiment [1], the DC50 is less than 10 nM and the Dmax was in the range of 75 to 85%. Also, in experiment [2], the DC50 was less than 10 nM and the greatest degradation seen (Dmax) fell in the range of 75 to 85%.
Consider `C[C@H]1CN(CC2CCN(c3ccc4c(c3)C(=O)N(C3CCC(=O)NC3=O)C4=O)CC2)CCN1C(=O)N1CCN2c3cc(-c4ccccc4O)nnc3NC[C@H]2C1` (stereo partly drawn) [Example 116, 2-(2,6-dioxopiperidin-3-yl)-5-(4-(((S)-4-((S)-2-(2-hydroxyphenyl)-6,6a,7,8,9,10-hexahydro-5H-pyrazino[1′,2′:4,5]pyrazino[2,3-c]pyridazine-8-carbonyl)-3-methyl-piperazin-1-yl)methyl)piperidin-1-yl)isoindoline-1,3-dione], for which, in experiment [1], the DC50 was less than 10 nM and the Dmax fell in the range of 75 to 85%. Also, in experiment [2], the DC50 was less than 10 nM and the Dmax lay in the range of 50 to 75%.
With `CC(C)(C)C(=O)OCN1C(=O)CCC(N2C(=O)c3cccc(N4CCC(N5CCC(N6CCN7c8cc(-c9ccccc9O)nnc8NC[C@H]7C6)CC5)CC4)c3C2=O)C1=O` (stereo partly drawn) [Example 123, (3-(4-(4-((S)-2-(2-hydroxyphenyl)-5,6,6a,7,9,10-hexahydro-811-pyrazino [1′,2′:4,5]pyrazino[2,3-c]pyridazin-8-yl)-[1,4′-bipiperidin]-1′-yl)-1,3-dioxoisoindolin-2-yl)-2,6-dioxopiperidin-1-yl)methyl pivalate], in experiment [1], the DC50 was less than 10 nM and the Dmax lay within 75 to 85%. Also, in experiment [2], the DC50 is less than 10 nM and the Dmax lay in the range of 75 to 85%.
`O=C1CCC(N2C(=O)c3ccc(N4CC[C@H](CN5CCC(C(=O)N6CCN7c8cc(-c9cc(F)ccc9O)nnc8NC[C@H]7C6)CC5)[C@@H](F)C4)cc3C2=O)C(=O)N1` (stereo partly drawn) [Example 279, 2-(2,6-dioxopiperidin-3-yl)-5-((3R,4R)-3-fluoro-4-((4-((S)-2-(5-fluoro-2-hydroxyphenyl)-6,6a,7,8,9,10-hexahydro-5H-pyrazino[1′,2′:4,5]pyrazino[2,3-c]pyridazine-8-carbonyl)piperidin-1-yl)methyl)piperidin-1-yl)isoindoline-1,3-dione]: in experiment [1], the DC50 is less than 10 nM and the Dmax was more than 85%. Besides, in experiment [2], the “HeLa-HiBit-SM4 Dmax (%)” value is on record as “C (C=50%<Dmax<=75%)” and the DC50 was less than 10 nM.
With `C[C@H]1CN2c3cc(-c4ccccc4O)nnc3NC[C@H]2CN1CC1CCN(CC2CCN(c3ccc4c(c3)C(=O)N(C3CCC(=O)NC3=O)C4=O)CC2)CC1` (stereo partly drawn) [Example 28, 2-(2,6-dioxopiperidin-3-yl)-5-(4-((4-(((6aS,9S)-2-(2-hydroxyphenyl)-9-methyl-5,6,6a,7,9,10-hexahydro-8H-pyrazino[1′,2′:4,5]pyrazino[2,3-c]pyridazin-8-yl)methyl)piperidin-1-yl)methyl)piperidin-1-yl) isoindoline-1,3-dione], the half-maximal degradation concentration (DC50) in experiment [1] and in experiment [2] was less than 10 nM in each case. For the same molecule, the results for the maximal degradation (Dmax) in experiment [1] and in experiment [2] were more than 85% and 75 to 85%, respectively.
As to `O=C1CCC(N2Cc3ccc(N4CCC(CN5CCN(C(=O)N6CCN7c8cc(-c9ccccc9O)nnc8NC[C@H]7C6)CC5C(F)(F)F)CC4)cc3C2=O)C(=O)N1` (stereo partly drawn) [Example 102, 3-(6-(4-((4-((S)-2-(2-hydroxyphenyl)-6,6a,7,8,9,10-hexahydro-5H-pyrazino[1′,2′:4,5]pyrazino[2,3-c]pyridazine-8-carbonyl)-2-(trifluoromethyl)piperazin-1-yl)methyl)piperidin-1-yl)-1-oxoisoindolin-2-yl)piperidine-2,6-dione], in experiment [1], the DC50 was less than 10 nM and the Dmax is more than 85%. In experiment [2], the DC50 is less than 10 nM and the Dmax lay within 75 to 85%.
